Measured values as given in US5369112A, “Method of treating cataracts caused by active oxygen” (Mitsubishi Gas Chemical Company, Inc., priority 1991, dated 1994).
Where two headings read alike, the source gives them in different places.

How the values were obtained:
male mice SPF-ICR = test: Acute toxicity test (1), intraperitoneal; conditions: mouse, in vivo
Description: To male mice SPF-ICR five weeks old (supplied by Japan Charles River Co.) were intraperitoneally administered PQQ·2Na, PQQ trimethyl ester, PQQ triallyl ester, OPQ, 1-methylpropyl OPQ, 2-methylthioethyl OPQ and benzyl OPQ at dosages of 40, 80, 160 and 200 mg per kg of body weight of mouce, respectively and they were bred for 14 days at 25° C. One group consisted of 8 mice. For administration, PQQ·2Na and OPQ and esters thereof were dissolved in physiological saline and PQQ trimethyl ester and PQQ triallyl ester were suspended in 1% Tween 80-containing physiological saline, respectively.

mice [1] = conditions: mouse, in vivo, ip
Description: One group consisted of 8 mice. For administration, PQQ·2Na and OPQ and esters thereof were dissolved in physiological saline and PQQ trimethyl ester and PQQ triallyl ester were suspended in 1% Tween 80-containing physiological saline, respectively.
PQQ·2Na, PQQ trimethyl ester, PQQ triallyl ester and OPQ and esters thereof were intraperitoneally administered to mice and they were bred in the same manner as in the above acute toxicity test. Urine of the mice was taken every day and glucose concentration was measured using clinical examination reagent (trademark: […] 2 manufactured by Miles.Sankyo Co.).

mice [2] = test: Kidney Toxicity Determined by Blood Examination (2); assay type: in vivo; conditions: for Creatinine / Glucose / Urea nitrogen: mouse serum
Description: Dosages were 150, 400 and 1000 mg per kg of body weight of mouse.
After lapse of one day from the administration, the mice were fasted (with feeding only water) and then after 15 hours, blood was collected and serum was obtained therefrom. Glucose, urea nitrogen and creatinine in the serum were examined by clinical examination reagent (trademark: FUJI DRYCHEMSLIDE manufactured by Fuji Photo Film Co., Ltd.).

[3] = Superoxide scavenging activity (hypoxanthine-xanthine oxidase, DMPO spin trapping, ESR); assay type: biochemical; conditions: Example 1, Table 6; pH 7.3; read-out: O2^- scavenging activity IC50
From the text: Activity of PQQ esters to scavenge superoxide (O2^-) produced in the system of hypoxanthinexanthine oxidase was examined by spin trapping method [using 5,5-dimethyl-l-pyrroline-N-oxide (hereinafter referred to as "DMPO") as a spin trapping agent] where electron spin resonance (hereinafter referred to as "ESR") was used.
Hypoxanthine+2O2 →2O2^- +uric acid (xanthine oxidase)
The following reagents were successively put in a test tube and stirred after addition of the hypoxanthine 7 to initiate the reaction and the reaction mixture was transferred to a quartz cell used for measurement of ESR.
Superoxide scavenging activity of OPQ and esters thereof was examined in the same manner as in Example 1.

[4] = system: Hydrocortisone-Induced Cataract of Hen's Eggs; test: Effect on hydrocortisone-induced cataract of hen's eggs; assay type: in vivo, white leghorn (hen's eggs); conditions: 1 μmole at 3, 10 and 20 h after hydrocortisone; lens at 48 h
Description: Fertilized eggs of white leghorn were incubated in an incubator at a temperature of 37° C. and 70% in humidity. The day on which the incubation was started was taken to be one day old. […] eggs of 15 day old were prepared and divided into 7 groups, each of which included 5 eggs (A-G). A small hole was bored through the eggshell above air chamber of the eggs of groups B-G and 0.25 μmole (as 0.2 ml solution) of hydrocortisone sodium succinate was administered into the air chamber through the hole and then, the hole was sealed with a cellophane tape. To The eggs of groups C-G was administered 1 μmole of following compounds after 3, 10 and 20 hours from administration of hydrocortisone sodium succinate. That is, 0.2 ml of a solution of PQQ·2Na in distilled water was administered to the eggs of group C, 0.2 ml of a suspension of PQQ trimethyl ester in 1% Tween 80 solution was administered to the eggs of group D, 0.2 ml of a suspension of triallyl ester in 1% Tween 80 solution was administered to the eggs of group E, 0.2 ml of a solution of OPQ in 10 mM NaCO3 solution was administered to the eggs of group F, and 0.2 ml of a solution of methyl OPQ in 10 mM NaCO3 solution was administered to the eggs of group G.
Crystal lens was taken out after 48 hours from administration of hydrocortisone sodium succinate and degree of cataract was judged by the criteria according to the Nishigori et al method (Nishigori et al, "Investigative Ophthalmology & Visual Science", Vol. 25, page 1051, 1984).
5 The whole nucleus was hazed in white.

[5] = not told
Description: Permeability of various compounds through capsule of crystal bovine lens was examined in accordance with the method mentioned in "Crystal Lens and Biochemical Mechanism thereof" (pages 436-440) edited by Shuzo Iwata (Medical Aoi Publisher). Each compound dissolved in 10 mM HEPES buffer (containing 1% DMSO in the case of PQQ triesters) was put in an apparatus for measurement of membrane permeation constant and left to stand for 16 hours at 35° C. and then amount of the compound which migrated was measured by ultraviolet absorption (243 nm for PQQ·2Na and 255 nm for PQQ esters) to obtain membrane permeation constant.

COC(=O)c1cc(C(=O)OC)c2c(n1)C(=O)C(=O)c1cc(C(=O)OC)[nH]c1-2 [PQQ trimethyl ester]
mice died (male mice SPF-ICR): no mice died | glucose detected in urine (mice [1]): no glucose was detected in urine | glucose in urine (mice [1]; 20 mg/kg): - | glucose in urine (mice [1]; 40 mg/kg): - | glucose in urine (mice [1]; 80 mg/kg): - | glucose in urine (mice [1]; 160 mg/kg): - | glucose in urine (mice [1]; 200 mg/kg): - | glucose in urine (mice [1]; 400 mg/kg): - | glucose in urine (mice [1]; 1000 mg/kg): - | Creatinine (mice [2]; 150 mg/kg): 0.85 ± 0.08 mg/dL | Glucose (mice [2]; 150 mg/kg): 154 ± 23 mg/dL | Urea nitrogen (mice [2]; 150 mg/kg): 23 ± 2 mg/dL | Creatinine (mice [2]; 400 mg/kg): 0.73 ± 0.05 mg/dL | Glucose (mice [2]; 400 mg/kg): 117 ± 21 mg/dL | Urea nitrogen (mice [2]; 400 mg/kg): 20 ± 2 mg/dL | Creatinine (mice [2]; 1000 mg/kg): 0.73 ± 0.05 mg/dL | Glucose (mice [2]; 1000 mg/kg): 125 ± 17 mg/dL | Urea nitrogen (mice [2]; 1000 mg/kg): 17 ± 4 mg/dL | kidney toxicity (mice [2]; mouse, in vivo, 1000 mg/kg): No kidney toxicity was recognized | IC50 [3]: 18.5 nM | Judgement 1 (No haze was seen in crystal lens), eggs [4]: 1/5 | Judgement 3 (Clear ring of white haze was seen in crystal lens), eggs [4]: 1/5 | Judgement 4 ~ 5 (white haze of pinhole size in nucleus ~ whole nucleus hazed in white), eggs [4]: 3/5 | Membrane permeation constant ([5]; bovine, 960 min): 1.41 ± 0.48 10 ^-7 cm^2 · sec^-1 | membrane permeation constant relative to that of PQQ.2Na [5]: about twice
